{"source": "patent US20240165097A1", "about": "“PHARMACEUTICAL COMPOSITION FOR THE TREATMENT OF ALZHEIMER'S DISEASE OR DEMENTIA” (Heptares Therapeutics Limited, priority 2021, published 2024)", "tested_on": "patients with mild-to-moderate AD", "assay": "Example D: EEG and evoked response potentials", "format": "in vivo, human", "procedure": "Exploratory pharmacodynamic endpoints (Cogstate tests and EEG/evoked response potential [ERP] biomarkers) were evaluated at screening (practice sessions) and baseline visits, and on Day 28±1. While this study was not powered to detect PD effects of small to moderate ESs, the study sample size provided approximately 80% power to detect a large ES of 0.97 for these endpoints using a significance level of 0.10.\nBrain activity was measured at rest using EEG, and during presentation of auditory stimuli using ERPs. The following EEG and ERP parameters were examined because of their sensitivities in detecting brain activity abnormalities at rest and during cognitive processing in patients with AD (Dierks T, Ihl R, Frolich L, Maurer K. Psychiatry Res. 1993; 50(3):151-162; Hedges D, Janis R, Mickelson S, Keith C, Bennett D, Brown B L. Clin EEG Neurosci. 2016; 47(1):48-55; Pekkonen E. Audiol Neurootol. 2000; 5(3-4):216-224): • Resting state power in the delta, theta, alpha, beta and gamma frequency bands measured by EEG activity during eyes open and eyes closed conditions (3 minutes each). • ERP markers (approximately 45 minutes) • Mismatch negativity (MMN; sensory gating/change detection)—amplitude and latency • P300-P3a and P3b (attention and working memory updating)—amplitude and latency • 40 Hz auditory steady-state response (ASSR; gamma oscillations and synchrony)—gamma-band evoked power and phase locking\nEEG and ERP markers were quantified using the following paradigms: • Resting state paradigm (6 minutes): EEGs were recorded while patients were sitting with their eyes open (3 minutes) and closed (3 minutes) for frequency band-power analyses in the delta, theta, alpha, beta, and gamma frequency bands. Primary dependent measure was mean normalised power at Cz electrode in the eyes open and closed conditions. • Passive auditory oddball paradigm (23 minutes): Patients were instructed to ignore auditory stimuli while viewing a silent movie. Patients listened to a pseudorandom sequence of 85 dB tones (5 msec rise/fall times, 500 msec stimulus onset asynchrony); 85% were standards (50 msec, 1 kHz) and 15% were deviants that differed in both duration and pitch (125 msec, 1.5 kHz). Event-related potentials were generated in response to standard and deviant waveforms. Deviant minus standard difference waves were generated. The primary dependent measures were MMN amplitude and latency at Fz and FCComp electrodes (an average of frontal electrodes). • 40 Hz ASSR paradigm (8 minutes): Gamma steady-state responses were assessed in response to 1 ms 85 dB white noise clicks presented in 500 ms trains at a frequency of 40 Hz, with an inter-train interval of 1 second. A total of 500 click trains were presented. The primary dependent measure was gamma-band—evoked power and gamma phase locking at Fz and FCComp electrodes. • Active auditory oddball paradigm (11 minutes): Patients listened to a pseudorandom sequence of 85 dB tones (5 msec rise/fall times, 1500 msec stimulus onset asynchrony); 80% were standards (50 msec, 1 kHz) and 20% were targets (500 msec, 0.5 kHz). Patients were instructed to press a button when they heard target stimuli. ERPs were generated in response to target tones (P3b). The primary dependent measures were P3b amplitude and latency at CPComp electrodes (an average of central and parietal electrodes).\nPatient data were collected from a 64-electrode cap onto a qualified and validated study system operated by site personnel who were specifically trained and certified for the study. The EEGs obtained at each patient visit were reviewed qualitatively by the study EEG expert (who remained blinded to dose allocation) and feedback was provided directly to the relevant site personnel on an ongoing basis and within 2 days of the assessment, to minimise issues from inter-site variability and to ensure the highest possible levels of consistency and reproducibility with respect to the EEG procedures. […]"}
{"smiles": "CCOC(=O)N1C2CCC1CC(N1CCC3(CC1)CNC(=O)C3)C2", "note": "(stereo not drawn) [HTL0018318, ethyl 3-(3-oxo-2,8-diazaspiro[4.5]dec-8-yl)-8-azabicyclo[3.2.1]octane-8-carboxylate]", "values": [{"measurement": "MMN amplitude at Fz electrode, ES", "setting": "5 mg, Day 28", "value": "−0.84"}, {"measurement": "MMN amplitude at Fz electrode, LSM difference from placebo", "setting": "5 mg, Day 28", "value": "−0.82", "unit": "uV"}, {"measurement": "peak P3b latency at CPComp electrodes, ES", "setting": "5 mg, Day 28", "value": "−0.81"}, {"measurement": "peak P3b latency at CPComp electrodes, LSM difference from placebo", "setting": "5 mg, Day 28", "value": -38, "unit": "ms"}, {"measurement": "MMN amplitude at Fz electrode, ES", "setting": "15 mg, Day 28", "value": "−0.64"}, {"measurement": "MMN amplitude at Fz electrode, LSM difference from placebo", "setting": "15 mg, Day 28", "value": "−0.63", "unit": "uV"}, {"measurement": "P3a amplitude at Fz electrode, ES", "setting": "15 mg, Day 28", "value": "−0.73"}, {"measurement": "P3a amplitude at Fz electrode, LSM difference from placebo", "setting": "15 mg, Day 28", "value": "−0.84", "unit": "uV"}, {"measurement": "delta power at Cz electrode, eyes open, ES", "setting": "15 mg, Day 28", "value": 0.75}, {"measurement": "delta power at Cz electrode, eyes open, LSM difference from placebo", "setting": "15 mg, Day 28", "value": 3.8}, {"measurement": "peak P3b latency at CPComp electrodes", "setting": "15 mg, Day 28", "value": "no significant decrease"}, {"measurement": "P3b mean amplitude at CPComp electrodes, ESs", "setting": "across all 3 doses", "value": "0.22-0.44"}, {"measurement": "MMN, mean ES", "setting": "all HTL0018318 doses", "value": 0.6}, {"measurement": "P3b amplitude, ES", "setting": "all HTL0018318 doses", "value": 0.33}, {"measurement": "P3b latency, ES", "setting": "all HTL0018318 doses", "value": 0.42}, {"measurement": "eyes open delta power, mean ES", "setting": "all HTL0018318 doses", "value": 0.52}, {"measurement": "peak MMN latency", "setting": "all doses", "value": "No statistically significant improvements"}, {"measurement": "40 Hz ASSR gamma-band evoked power or phase locking at Fz electrode", "setting": "any HTL0018318 dose", "value": "no significant effects"}]}
